Patent US8470834B2, “AZO-substituted pyridine and pyrimidine derivatives and their use in treating viral infections” (Merck Sharp & Dohme Corp., priority 2008, dated 2013)

Legend:
HCV replicon cells = assay: Cell-based HCV Replicon Assay; conditions: Hepatitis C virus, 72 h; replicon RNA level by real time PCR (Taqman), day 3; EC90 = concentration to achieve ΔCT=3.2 over baseline
Method: Assays Cell-based HCV Replicon Assay
To measure cell-based anti-HCV activity of the compounds of the present invention, replicon cells were seeded at 5000 cells/well in 96-well collagen I-coated Nunc plates in the presence of the compound of the invention. […] The final concentration of DMSO was 0.5%, fetal bovine serum was 10%, in the assay media. […] The replicon RNA level was measured using real time PCR (Taqman assay). The amplicon was located in 5B. The
GAPDH RNA was used as endogenous control and was amplified in the same reaction as NS5B (multiplex PCR) using primers and VIC-labeled probe recommended by the manufacturer (PE Applied Biosystem). The real-time RT-PCR reactions were run on ABI PRISM 7900HT Sequence Detection System using the following program: 48° C. for 30 min, 95° C. for 10 min, 40 cycles of 95° C. for 15 sec, 60° C. for 1 min. The ΔCT values (CT5B-CTGAPDH) were plotted against the concentration of test compound and fitted to the sigmoid dose-response model using GraphPad PRISM software. EC50 was defined as the concentration of inhibitor necessary to achieve ΔCT=1 over the projected baseline; EC90 the concentration necessary to achieve ΔCT=3.2 over the baseline. Alternatively, to quantitate the absolute amount of replicon RNA, a standard curve was established by including serially diluted T7 transcripts of replicon RNA in the Taqman assay. […]

| melting point | SMILES | EC90 (HCV replicon cells) [µM] |
| --- | --- | --- |
| 238 to 241 °C (dec.) | Nc1nc(Cl)c(/N=N/c2ccc(Cl)cc2)c(N[C@H]2C[C@@H](CO)[C@H](O)[C@@H]2O)n1 [Compound 11, (1S,2R,3S,5S)-3-[[2-amino-6-chloro-5-[(4-chlorophenyl)azo]-4-pyrimidinyl]amino]-5-(hydroxymethyl)-1,2-cyclopentanediol] | – |
| – | Nc1nc(Cl)c(/N=N/c2ccc(Cl)cc2)c(N[C@@H]2C[C@H](CO)[C@@H](O)C2)n1 (racemic) [Compound 8, Cyclopentanemethanol, 4-[[2-amino-6-chloro-5-[(4-chlorophenyl)azo]-4-pyrimidinyl]amino]-2-hydroxy-, cis, trans—(+−)—] | > 5 |
